Measured values taken from US11932874B2, “Method for culturing mesenchymal stem cells using gamma-irradiated serum” (R Bio CO., Ltd., priority 2018, dated 2024).

Test system: human adipose tissue-derived stem cells
Assay: Culture of stem cells using 25 kGy gamma-irradiated FBS with vitamin C pre- or post-treatment (Example 3): cell number, doubling time
Assay type: cell-based
Conditions: for Cell No. / Doubling time: Ad-MSC (P4), 4 days of culture
Procedure: After 4 days of culture, the cell proliferation rate and doubling time of the cells were examined. The viability of the cells was examined with a microscope and a hemocytometer, and the doubling time was calculated using the following equation: Doubling Time=duration×log(2)/log(final concentration)−log(initial concentration). [Equation 1] Fetal bovine serum (FBS) was irradiated with 25 kGy of gamma radiation, thereby preparing gamma-irradiated FBS. Vitamin C (ascorbic acid; L-Ascorbic Acid 2-phosphate) was added to the FBS which was then irradiated with 25 kGy of gamma irradiation, thereby preparing gamma-irradiated FBS pretreated with vitamin C. The vitamin C was added to the FBS at a concentration of 0.1% or 1%. Then, the human adipose tissue-derived stem cells at passage 3, isolated in Example 1, were thawed and inoculated into T75 flasks at a concentration of 0.5×10^6 cells/T75 flask, and the inoculated cells were cultured with AMSC+ culture medium (R-Bio Co., Ltd.) containing the prepared gamma-irradiated FBS or gamma-irradiated FBS pretreated with vitamin C at a concentration of 5% in a CO2 incubator at 37° C. for 2 days. After 2 days of culture, the medium was removed and replaced with AMSC+ culture medium containing 5% gamma-irradiated FBS (a negative control group), medium obtained by adding vitamin C to AMSC+ culture medium containing 5% gamma-irradiated FBS (a vitamin C post-treatment test group), or AMSC+ culture medium containing 5% gamma-irradiated FBS pretreated with vitamin C (a vitamin C pre-treatment test group). Vitamin C was added to the culture medium or FBS at a concentration of 0.1 or 1%. After 4 days of culture, the cell proliferation rate and doubling time of the cells were examined in the same manner as described in Example 2 above. A positive control group was also prepared as described in Example 2 above.

[1] = 0.1% AA2P post-treatment + 25 KGy
[2] = 0.1% AA2P pre-treatment + 25 KGy
[3] = 1% AA2P post-treatment + 25 KGy

Compound: O=C1O[C@H]([C@@H](O)CO)C(O)=C1OP(=O)(O)O [AA2P, L-Ascorbic Acid 2-phosphate]
- Cell No. [1]: 10.6 ×10^6 cells
- Doubling time [1]: 21 h
- Cell No. [2]: 10.2 ×10^6 cells
- Doubling time [2]: 21 h
- Cell No. [3]: 14.0 ×10^6 cells
- Doubling time [3]: 19 h
- Cell No. (1% AA2P pre-treatment + 25 KGy): 10.0 ×10^6 cells
- Doubling time (1% AA2P pre-treatment + 25 KGy): 21 h
- cell number and doubling time versus positive control group (vitamin C post-treatment and pre-treatment test groups, 25 kGy FBS, 4 days): increased to the levels of the positive control group
- microscope observation of stem cells (vitamin C post-treatment and pre-treatment test groups, 25 kGy FBS, day 4 (FIG. 3)): levels similar to those of the positive control group
